Five compounds from patent US10407414B2, “Mannose derivatives for treating bacterial infections” (priority 2015, dated 2019) can be followed below.

The structures appear in SMILES notation.

The test system of experiment [1] is bacterial strain LF82 binding to the glycoprotein BSA-(Mannose)3 (FimH antagonists). Put plainly: Bacterial Binding Assay (BBA). The experiment is classed as cell-based, Escherichia coli. The settings on record: read-out: Bacterial Binding Assay IC50 ± SEM. A digest of the protocol: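 Luciferase-expressing E. coli LF82, grown overnight at 37 °C without shaking, added as 2×10^8 bacteria/mL suspension with compound in BSA/D-PBS binding buffer. Wells were coated with 0.5–2 μg/mL BSA-(Man)3 and BSA-blocked, with 40–75 min binding at room temperature. After washing, adherent bacteria were read by luciferase luminescence and IC50 derived.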

Experiment [2] has as its system AIEC LF82 strain on T84 intestinal epithelial cells. Put plainly: Adhesion assay of AIEC LF82 strain on T84 intestinal epithelial cells (post-incubation test). The experiment is classed as cell-based, E. coli. How it is done:
Residual adhesion is the ratio of level of colonization/decolonization of AIEC measured on cells, and is expressed in percentage. 100% corresponds to the control experiment (NT).
Adhesion Assays of AIEC LF82 Strain on T84 Intestinal Epithelial Cells
Compound 56 was evaluated for its ability to inhibit the adhesion of bacteria AIEC LF82 strain on T84 intestinal cells, in order to assess the therapeutic potential of the tested compounds in Crohn's Disease (CD) in particular. The following post-incubation test was used (also described in Brument et al. J. Med. Chem. 2013, 56, 5395-5406), wherein the tested compound is added after the bacteria are brought into contact with the cells. This test thus mimics a use of the compounds in curative treatment of pathologies associated with AIECs, in particular Crohn's disease.
E. coli strain LF82 isolated from an ileal biopsy of a CD patient was used as the AIEC reference strain. Bacteria were grown overnight in Luria-Bertani (LB) broth, and a bacterial suspension was prepared at a concentration of 6×10^6 bacteria/mL in DMEM/F12/SVF dec 10% medium for adhesion assays. The human intestinal cell line T84, purchased from American Type Culture Collection (ATCC, CCL-248), was maintained in an atmosphere containing 5% CO2 in the culture medium recommended by ATCC. […]

The term IC50 denotes the concentration that gives 50% inhibition. As to `Cc1cc(=O)[nH]cc1-c1cc(C#C[C@H]2O[C@H](CO)[C@@H](O)[C@H](O)[C@@H]2O)c2[nH]ncc2c1` [Compound 56, 4-methyl-5-[7-[2-[(2R,3S,4R,5S,6R)-3,4,5-trihydroxy-6-(hydroxymethyl)tetrahydropyran-2-yl]ethynyl]-1H-indazol-5-yl]-1H-pyridin-2-one], in experiment [1], the IC50 was 0.2 ± 0.02 nM. For the same compound, the “decolonization of adherent bacteria” value in experiment [2] (at 10 nM, compound added after infection of T84 cells with LF82, 3 h at 37° C.) was “about 50%”. For the same compound, in experiment [2] (from a concentration of 100 nM, FIG. 1), the “activity for the decolonization of the LF82 AIEC from T84 cells” value is on record as “potent activity”. With `COc1ccc(Cn2cc3cc(Br)cc(C#C[C@H]4O[C@H](CO)[C@@H](O)[C@H](O)[C@@H]4O)c3n2)cc1` [Compound 17, (2R,3S,4R,5S,6R)-2-[2-[5-bromo-2-[(4-methoxyphenyl)methyl]indazol-7-yl]ethynyl]-6-(hydroxymethyl)tetrahydropyran-3,4,5-triol], in experiment [1], the IC50 was found to be 46 ± 14 nM. In the case of `Cc1ccc(C)c(-c2cc(C#C[C@H]3O[C@H](CO)[C@@H](O)[C@H](O)[C@@H]3O)c3[nH]ncc3c2)c1` [Compound 82, (2R,3S,4R,5S,6R)-2-[2-[5-(2,5-dimethylphenyl)-1H-indazol-7-yl]ethynyl]-6-(hydroxymethyl)tetrahydropyran-3,4,5-triol], the IC50 in experiment [1] was 1 nM. In the case of `OC[C@H]1O[C@H](C#Cc2cc(-c3ccccc3)cc3cn[nH]c23)[C@@H](O)[C@@H](O)[C@@H]1O` [Compound 25, (2R,3S,4R,5S,6R)-2-(hydroxymethyl)-6-[2-(5-phenyl-1H-indazol-7-yl)ethynyl]tetrahydropyran-3,4,5-triol], in experiment [1], the IC50 stood at 0.4 ± 0.04 nM. Same read-out and setting: with `O=c1cc(-c2cc(C#C[C@H]3O[C@H](CO)[C@@H](O)[C@H](O)[C@@H]3O)c3[nH]ncc3c2)cc[nH]1` [Compound 85, 4-[7-[2-[(2R,3S,4R,5S,6R)-3,4,5-trihydroxy-6-(hydroxymethyl)tetrahydropyran-2-yl]ethynyl]-1H-indazol-5-yl]-1H-pyridin-2-one] the figure was 0.4 ± 0.2 nM.
